Experimental findings from patent publication US11091497B2, “Pyrano[3,4-b]pyrazine kappa opioid receptor ligands for treating addiction, pruritus, pain, and inflammation” (The Rockefeller University, priority 2017, dated 2021) are described below.

Assay [1] has as its target T1, human kappa opioid receptors (Homo sapiens, UniProt P41145).
T1 construct: expressed in transfected cells; host or cells: U2OS
The assay is described as follows: [35S]GTPγS stimulation, membranes from U2OS cells. The class given is biochemical. To be noted: for Emax: read-out: GTPγS stimulation % efficacy.

Another assay has as its system Serum prolactin levels. As to the kind of experiment: Prolactin release in mice. The class given is in vivo. To be noted: intraperitoneal, 30 minutes prior to sampling. The protocol: Mice were injected intraperitoneally with the compound to be tested 30 minutes prior to sampling. Trunk blood was collected by rapid decapitation, followed within 2 hours by preparation of serum. Serum prolactin levels were determined using a commercially available enzyme-linked immunoassay (AbCam, Cambridge, UK) following dilution of serum 5-fold in assay buffer.

T1 sequence (P41145 whole entry): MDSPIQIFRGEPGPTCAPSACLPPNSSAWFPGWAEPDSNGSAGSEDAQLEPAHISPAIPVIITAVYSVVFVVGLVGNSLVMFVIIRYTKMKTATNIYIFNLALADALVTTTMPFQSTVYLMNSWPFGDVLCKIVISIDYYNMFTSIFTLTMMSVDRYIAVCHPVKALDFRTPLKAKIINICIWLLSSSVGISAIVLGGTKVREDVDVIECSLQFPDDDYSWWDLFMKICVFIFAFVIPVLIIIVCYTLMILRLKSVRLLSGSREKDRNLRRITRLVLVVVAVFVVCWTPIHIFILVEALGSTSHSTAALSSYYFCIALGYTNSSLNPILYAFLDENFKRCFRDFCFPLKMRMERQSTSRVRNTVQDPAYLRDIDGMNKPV

Turning to `CN1CCN(C(=O)Cc2ccc(Cl)c(Cl)c2)[C@H]2[C@H]1COC[C@@H]2N1CCCC1` (racemic) [Example 5A23, 1-[4-methyl-8-pyrrolidin-1-yl-3,4a,5,7,8,8a-hexahydro-2H- -pyrano(3,4-b)pyrazin-1-yl]-2-(3,4-dichlorophenyl)ethanone], in assay [1], the EC50 amounted to 46 nM and the Emax was 76%. For the same compound, the prolactin release result with Serum prolactin levels (30 mg/kg) is listed as “significant prolactin release”.

Consider `O=C(Cc1ccc(Cl)c(Cl)c1)N1CCN[C@@H]2COC[C@H](N3CCCC3)[C@H]21` (racemic) [Example 5A22, 1-[8-pyrrolidin-1-yl-2,3,4,4a,5,7,8,8a-octahydropyrano(3,4-b)pyrazin-1-yl]-2-(3,4-dichlorophenyl)ethanone], for which, in assay [1], the EC50 came to 63 nM and the Emax was determined as 96%. Moreover, the prolactin release entry in the assay with Serum prolactin levels (5 mg/kg) is reported as “significant prolactin release”.
